Patent US8092816B2, “Insecticidal compositions for control of general household pests” (priority 2004, dated 2012)

Experiments:
Type in all cases: in vivo
[1] = tested on: German cockroach; test: Example 2: German cockroach knockdown and mortality, bifenthrin and imidacloprid
Description: (§1) The following examples further illustrate the present invention, but, of course, should not be construed as in any way limiting its scope. The examples set forth certain biological data illustrating the efficacy of the compositions of the present invention in controlling general household pests. Each example embodies a separate test wherein the pests were randomly selected from a population at a random age. As a result, from example to example, the ages of the pests can be very different. This age difference potentially translates to different baselines for each example. Therefore, data should only be compared within the example and not from example to example due to the differences in age of the pests from example to example. Unless otherwise indicated, all parts, percentages, and the like are by weight. The spray chamber used in the examples was approximately 76 inches tall, 73 inches long and 31 inches deep with an adjustable shelf (approximately 22 inches deep) and a movable spray nozzle. The spray chambers were calibrated to deliver a volume of approximately 1 gallon of liquid per 1000 square feet of area at about 14 pounds per square inch of pressure. A DeVilbiss hand held sprayer (Atomizer model 152) manufactured by DeVilbiss located in Glendale Heights, Ill. was used in testing house flies and mosquitoes. The DeVilbiss was used to apply approximately 3-5 milliliters of product at about 10 pounds per square inch.
(§2) The compositions of the present invention were tested for German cockroach activity in the following manner:
Test compositions made up of TALSTARONE® MULTI-INSECTICIDE and a wettable powder of imidacloprid (MERIT) in distilled water were prepared that provided appropriate rates of application of combinations of bifenthrin and imidacloprid, as well as bifenthrin and imidacloprid alone.
(§3) The spray chamber was then calibrated to deliver the treatment solution at the desired volume and pressure over the desired area on the chamber shelf. Spray chamber shelf height was adjusted to approximately 18 inches from the spray tip. The shelf was then covered with aluminum foil and the center of the shelf from front-to-back and end-to-end was determined. A desired number of 4.0″ sieve circles were marked on the aluminum foil with a permanent marker. The inside of a desired number of PVC rings were coated with a petroleum jelly/mineral oil mixture (1:2 ratio). The PVC rings were place on the sieve circles. 10 male German cockroaches were placed inside each PVC ring. The sprayer was activated and the test compound was applied to each PVC ring interior. German cockroach knockdown and mortality were measured.

[2] = tested on: German cockroach; test: Example 8: German cockroach mortality, bifenthrin and thiamethoxam
Description: as §1, §2
Test compositions made up of TALSTARONE® MULTI-INSECTICIDE and a water dispersible granular of thiamethoxam (CENTRIC) in distilled water were prepared that provided appropriate rates of application of combinations of bifenthrin and thiamethoxam, as well as bifenthrin and thiamethoxam alone.
as §3, with “cockroach” for “cockroach knockdown and”, “mortality was” for “mortality were”

[3] = tested on: American cockroach; test: Example 14: American cockroach knockdown and mortality, bifenthrin and clothianidin
Description: as §1
The compositions of the present invention were tested for American cockroach activity in the following manner:
(§4) Test compositions made up of TALSTARONE® MULTI-INSECTICIDE and a 16% a.i. water dispersible granular of clothianidin in distilled water were prepared that provided appropriate rates of application of combinations of bifenthrin and clothianidin, as well as bifenthrin and clothianidin alone.
as §3, with “American” for “German”

[4] = tested on: Oriental cockroach; test: Example 15: Oriental cockroach knockdown and mortality, bifenthrin and clothianidin
Description: as §1
The compositions of the present invention were tested for Oriental cockroach activity in the following manner:
as §4
as §3, with “Oriental” for “German”

[5] = rate of appln. 10 PPM (0.001% by weight)
[6] = rate of appln. 50 PPM (0.005% by weight)

Cc1c(COC(=O)[C@@H]2[C@H](/C=C(\Cl)C(F)(F)F)C2(C)C)cccc1-c1ccccc1 (racemic) [A, 2-methylbiphenyl-3-ylmethyl (Z)-(1RS)-cis-3-(2-chloro-3,3,3-trifluoroprop-1-enyl)-2,2-dimethylcyclopropanecarboxylate]
Knockdown Rate @ 10 minute ([1]; 200 PPM, 0.02% by weight): 0%
Knockdown Rate @ 15 minute ([1]; 200 PPM, 0.02% by weight): 3%
Knockdown Rate @ 30 minutes ([1]; 200 PPM, 0.02% by weight): 45%
Mortality Rate @ 60 minutes ([1]; 200 PPM, 0.02% by weight): 100%
Mortality Rate @ 120 minutes ([1]; 200 PPM, 0.02% by weight): 100%
Mortality Rate @ 1 day ([1]; 200 PPM, 0.02% by weight): 100%
Knockdown Rate @ 10 minute ([1]; 600 PPM, 0.06% by weight): 0%
Knockdown Rate @ 15 minute ([1]; 600 PPM, 0.06% by weight): 8%
Knockdown Rate @ 30 minutes ([1]; 600 PPM, 0.06% by weight): 60%
Mortality Rate @ 60 minutes ([1]; 600 PPM, 0.06% by weight): 100%
Mortality Rate @ 120 minutes ([1]; 600 PPM, 0.06% by weight): 100%
Mortality Rate @ 1 day ([1]; 600 PPM, 0.06% by weight): 100%
Mortality Rate @ 60 minutes ([2]; 10 PPM, 0.001% by weight): 8%
Mortality Rate @ 120 minutes ([2]; 10 PPM, 0.001% by weight): 33%
Mortality Rate @ 1 day ([2]; 10 PPM, 0.001% by weight): 35%
Mortality Rate @ 2 day ([2]; 10 PPM, 0.001% by weight): 60%
Mortality Rate @ 4 days ([2]; 10 PPM, 0.001% by weight): 98%
Mortality Rate @ 60 minutes ([2]; 50 PPM, 0.005% by weight): 15%
Mortality Rate @ 120 minutes ([2]; 50 PPM, 0.005% by weight): 48%
Mortality Rate @ 1 day ([2]; 50 PPM, 0.005% by weight): 58%
Mortality Rate @ 2 day ([2]; 50 PPM, 0.005% by weight): 100%
Mortality Rate @ 4 days ([2]; 50 PPM, 0.005% by weight): 100%
Knockdown Rate @ 10 minute [3, 5]: 0%
Knockdown Rate @ 15 minute [3, 5]: 0%
Knockdown Rate @ 30 minute [3, 5]: 0%
Mortality Rate @ 60 minute [3, 5]: 0%
Mortality Rate @ 120 minutes [3, 5]: 0%
Mortality Rate @ 4 hours [3, 5]: 0%
Mortality Rate @ 1 day [3, 5]: 10%
Mortality Rate @ 2 days [3, 5]: 30%
Knockdown Rate @ 10 minute [3, 6]: 5%
Knockdown Rate @ 15 minute [3, 6]: 10%
Knockdown Rate @ 30 minute [3, 6]: 5%
Mortality Rate @ 60 minute [3, 6]: 0%
Mortality Rate @ 120 minutes [3, 6]: 0%
Mortality Rate @ 4 hours [3, 6]: 35%
Mortality Rate @ 1 day [3, 6]: 40%
Mortality Rate @ 2 days [3, 6]: 55%
Knockdown Rate @ 10 minute [4, 5]: 0%
Knockdown Rate @ 15 minute [4, 5]: 0%
Knockdown Rate @ 30 minute [4, 5]: 0%
Mortality Rate @ 60 minute [4, 5]: 0%
Mortality Rate @ 120 minute [4, 5]: 0%
Mortality Rate @ 4 hours [4, 5]: 0%
Mortality Rate @ 1 day [4, 5]: 0%
Mortality Rate @ 2 days [4, 5]: 3%
Knockdown Rate @ 10 minute [4, 6]: 0%
Knockdown Rate @ 15 minute [4, 6]: 0%
Knockdown Rate @ 30 minute [4, 6]: 0%
Mortality Rate @ 60 minute [4, 6]: 0%
Mortality Rate @ 120 minute [4, 6]: 0%
Mortality Rate @ 4 hours [4, 6]: 10%
Mortality Rate @ 1 day [4, 6]: 20%
Mortality Rate @ 2 days [4, 6]: 23%
